Results: ChEMBL document CHEMBL3351645, “Design and synthesis of γ-butyrolactone derivatives as potential spermicidal agents” (Bioorg Med Chem Lett, 2014)
Activity calls are given as the source filed them. The rule behind the calls is not given here.

Assays:
[1] = system: Spermatozoa; test: Spermicidal activity in human semen assessed as induction of spermatozoa immotility at 0.1% w/v by Sander-Cramer method; type: functional, cell-based
[2] = system: Spermatozoa; test: Spermicidal activity in human semen assessed as induction of spermatozoa immotility at <0.1% w/v by Sander-Cramer method; type: functional
[3] = system: HeLa; test: Cytotoxicity against human HeLa cells; type: cell-based
[4] = system: Spermatozoa; test: Spermicidal activity in human semen assessed as induction of spermatozoa immotility by Sander-Cramer method; type: functional
[5] = system: Spermatozoa; test: Inhibition of free thiols level in human semen derived spermatozoa at 1% incubated for 15 mins by monobromobimane dye based fluorescence microscopy; type: functional, cell-based

## CCN(CC)CCC1(C(=O)/C=C/c2ccc(N(C)C)cc2)CCOC1=O (stereo unspecified)
[1]
  Activity: inactive

## COc1cc(/C=C/C(=O)C2(CCCN(C)C)CCOC2=O)ccc1O.O=C(O)C(O)C(O)C(=O)O (stereo unspecified)
[2]
  MEC: 0.05%
[3]
  IC50: 269 µg/mL
[4]
  MEC: 0.05%
[5]
  inhibition: inactive

## CC(=O)C1(CCN2CCCC2)CCOC1=O (stereo unspecified)
[4]
  MEC: inactive

## O=C(/C=C/c1ccc(O)cc1)C1(CCN2CCCC2)CCOC1=O (stereo unspecified)
[1]
  Activity: inactive

## CCN(CC)CCC1(C(=O)/C=C/c2ccc(O)cc2)CCOC1=O (stereo unspecified)
[1]
  Activity: inactive

## CN(C)c1ccc(/C=C/C(=O)C2(CCN3CCCC3)CCOC2=O)cc1 (stereo unspecified)
[1]
  Activity: inactive

## COc1cc(/C=C/C(=O)C2(CCN3CCOCC3)CCOC2=O)ccc1O.O=C(O)C(O)C(O)C(=O)O (stereo unspecified)
[2]
  MEC: 0.1%
[3]
  IC50: 848 µg/mL
[4]
  MEC: 0.5%

## COc1cc(/C=C/C(=O)C2(CCN3CCCC3)CCOC2=O)ccc1O (stereo unspecified)
[1]
  Activity: inactive

## CCN(CC)CCC1(C(C)=O)CCOC1=O (stereo unspecified)
[4]
  MEC: inactive

## CCCCCCCCCc1ccc(OCCOCCOCCOCCOCCOCCOCCOCCOCCO)cc1 [NONOXYNOL 9]
[2]
  MEC: 0.02%

## CC(=O)C1(CCCN(C)C)CCOC1=O (stereo unspecified)
[4]
  MEC: inactive

## O=C(/C=C/c1ccc(O)cc1)C1CCOC1=O (stereo unspecified)
[1]
  Activity: inactive
[4]
  MEC: inactive

## CCN(CC)CCC1(C(=O)/C=C/c2ccc(O)c(OC)c2)CCOC1=O (stereo unspecified)
[1]
  Activity: inactive

## COc1cc(/C=C/C(=O)C2CCOC2=O)ccc1O (stereo unspecified)
[1]
  Activity: inactive

## CN(C)c1ccc(/C=C/C(=O)C2(CCN3CCOCC3)CCOC2=O)cc1.O=C(O)C(O)C(O)C(=O)O (stereo unspecified)
[2]
  MEC: 0.5%
[3]
  IC50: 1330 µg/mL
[4]
  MEC: 0.5%

## O=C(/C=C/c1ccc(O)cc1)C1(CCN2CCOCC2)CCOC1=O.O=C(O)C(O)C(O)C(=O)O (stereo unspecified)
[2]
  MEC: 0.05%
[3]
  IC50: 961 µg/mL
[4]
  MEC: 0.05%
[5]
  inhibition: Active

## CN(C)CCCC1(C(=O)/C=C/c2ccc(N(C)C)cc2)CCOC1=O.O=C(O)C(O)C(O)C(=O)O (stereo unspecified)
[2]
  MEC: 0.1%
[3]
  IC50: 1200 µg/mL
[4]
  MEC: 0.5%

## CC(=O)C1(CCN2CCOCC2)CCOC1=O (stereo unspecified)
[4]
  MEC: inactive

## CN(C)c1ccc(/C=C/C(=O)C2CCOC2=O)cc1 (stereo unspecified)
[1]
  Activity: inactive
[4]
  MEC: inactive

## CN(C)CCCC1(C(=O)/C=C/c2ccc(O)cc2)CCOC1=O.O=C(O)C(O)C(O)C(=O)O (stereo unspecified)
[2]
  MEC: 0.5%
[3]
  IC50: 661 µg/mL
[4]
  MEC: 0.5%
